Test results as given in patent publication US20240336868A1, “COMPOSITIONS COMPRISING ADAMANTYL ESTER-CONTAINING COMPOUNDS” (The Procter & Gamble Company, priority 2023, published 2024).

Assay type: physicochemical
Settings: for Head-space: headspace above about 2E+06 ng/mL solution in isopropyl myristate (IPM); for Head-space / Air/IPM partition coef: 30° C., average of three replicates; for Air/IPM partition coef: in isopropyl myristate (IPM)
Procedure: Perfume headspace data is collected for various materials according to the method provided below.
The partition coefficients are calculated by determining the amount of PRM in the headspace above a solution with a known concentration using a GC/FID-MS (Agilent 7890 and 5977A MSD) with a thermal desorption unit (Gerstel MPS2) and Dynamic Headspace Sampler (Gerstel DHS). This technique allows for automated headspace collections using the MultiPurposeSampler (MPS). The PRMs of interest are prepared at a known concentration in isopropyl myristate (IPM) or propylene glycol monomethyl ether (DPM), and 1 mL is pipetted in a 20 mL headspace vial.
DHS Conditions: The sample is tempered in the unit at 30° C. A helium stream at 10 mls/min purges 20 mL of headspace containing the analytes above the sample onto the sorbent tube (TDU) containing 25 mg of TenaxTA 35/60 (Restek cat #25701).
TDU conditions: The sorbent tube is desorbed with a program starting at 30° C. solvent vent for 2 min then ramped at 720° C./min to 270° C. and held for 8 min. The analytes are refocused on a glass bead liner at −60° C. then desorbed at a rate of 12° C./s to 270° C. onto the GC column.
GC/MS conditions: Agilent 122-5532 UI column of 30 m×250 μm×0.25 μm and a flow rate of 1.5 mL/min is utilized. A temperature program of 50° C. to 280° C. with a 2 min hold and a ramp rate of 12° C./min is suitable. Scan or SIM mode MSD parameters with a solvent delay for the DPM are applied to achieve appropriate detection.
Analytical standards can be obtained from AK Scientific, Inc., Union City, CA 94587, USA. A stock solution is prepared at approximately 0.5 g/L. The stock solution is then diluted to 4 to 5 concentrations ranging from approximately 0.05 g/L to 0.00005 g/L. These standard solutions are then analyzed by GC/MS. This analysis is performed by using the same TDU desorption and GC/MS conditions described above with a 1 μL liquid injection onto the TDU tube instead of the DHS collection. The amount injected on column and the area responses of the target m/z are utilized to create a calibration plot with a linear fit.
Quantification of the headspace is performed by the PRM target m/z area response of the perfume component and the linear equation of the calibration plot.
Perfume headspace data is collected for various materials according to the Headspace Method provided above in the Test Methods section. The Air/Solvent partition coefficients are determined and indexed accordingly (e.g., where the partition coefficient for OTNE is set at 1.00).
Results for 2-adamantyl propanoate, 2-adamantyl acetate, and 2-methyl-2-adamantyl acetate in isopropyl myristate (IPM) are provided below in Table 1.

**Q.** Which “OTNE Indexed Air/IPM partition coefficient” value does the source give for CC(=O)OC1C2CC3CC(C2)CC1C3 (stereo not drawn) [2-adamantyl acetate] here?
**A.** The value was 8.30.

**Q.** What about the Head-space of the same compound?
**A.** Its Head-space is 0.1793 ng/mL.

**Q.** What about the Air/IPM partition coef of the same compound?
**A.** The Air/IPM partition coef was 8.66E−08 ng/mL in air per ng/mL in IPM.

**Q.** What does the source list for CCC(=O)OC1C2CC3CC(C2)CC1C3 (stereo not drawn) [2-adamantyl propanoate]?
**A.** OTNE Indexed Air/IPM partition coefficient: 5.47; Head-space: 0.1182 ng/mL; Air/IPM partition coef: 5.71E−08 ng/mL in air per ng/mL in IPM

**Q.** For CC(=O)OC1(C)C2CC3CC(C2)CC1C3 (stereo not drawn) [2-methyl-2-adamantyl acetate], which “OTNE Indexed Air/IPM partition coefficient” value is on record?
**A.** The value was 8.67.

**Q.** What about the Head-space of the same compound?
**A.** Its Head-space is 0.1874 ng/mL.

**Q.** What about the Air/IPM partition coef of the same compound?
**A.** Its Air/IPM partition coef is 9.05E−08 ng/mL in air per ng/mL in IPM.

**Q.** Which “OTNE Indexed Air/IPM partition coefficient” value does the source give for CC(=O)C1(C)CC2=C(CCCC2(C)C)CC1C (stereo not drawn) [OTNE, 1-(1,2,3,4,5,6,7,8-Octahydro-2,3,8,8-tetramethyl-2-naphthalenyl) ethanone, reference compound] here?
**A.** The value was 1.00.

**Q.** And the Head-space?
**A.** Its Head-space is 0.0216 ng/mL.

**Q.** What about the Air/IPM partition coef of the same compound?
**A.** Its Air/IPM partition coef is 1.04E−08 ng/mL in air per ng/mL in IPM.
